Among the data in ChEMBL document CHEMBL3232754, “Identification of novel bivalent mimetics of annonaceous acetogenins via a scaffold-hopping strategy” (Bioorg Med Chem Lett, 2014) are GI50 values, retold here.

The test system of data set [1] is HCT-116. Description: Growth inhibition of human HCT116 cells by MTT assay.
Data set [2] can be described thus: Growth inhibition of human HLF cells by MTT assay. On the technique in general: Tetrazolium assays rely on reduction of a dye to a coloured formazan, in cell work by metabolically active cells.
Data set [3] is described as follows: Growth inhibition of human HLF cells after 72 hrs by MTT assay. Type of data set: cell-based.
For data set [4], the system named is HCT-116. Description: Growth inhibition of human HCT116 cells after 72 hrs by MTT assay. It counts as functional. The note with it: HCT-116, 72 h.
A short description of data set [5]: Growth inhibition of human SGC7901 cells after 72 hrs by MTT assay. It counts as functional. As to conditions: SGC-7901, 72 h.
Data set [6] can be described thus: Growth inhibition of human 16HBE cells after 72 hrs by MTT assay. It counts as cell-based, 16HBE14o-.
The nature of data set [7]: Growth inhibition of human 16HBE cells by MTT assay.
Data set [8] is described as follows: Growth inhibition of human SGC7901 cells by MTT assay. The note with it: SGC-7901.

In general, GI50 refers to the concentration at which growth is held to half of that of the control. `CC1=C(C)C(=O)C(CCCCCCCCCCN2CCCN(CCCCCCCCCCC3=C(C)C(=O)C(C)=C(C)C3=O)CC2)=C(C)C1=O`: the GI50 stood at 0.1 µM in data set [1]; 2.55 µM in data set [2]; 0.3 µM in data set [4]; 0.14 µM in data set [5]; 0.91 µM in data set [7]; 0.14 µM in data set [8]. In addition, the GI50 at 72 h in data set [3] came out at 0.36 µM; in data set [6], 3.32 µM.
As to `COC1=C(C)C(=O)C(CCCCCCCCCCN2CCN(C(=O)c3ccc(-c4ccccc4)cc3)CC2)=C(C)C1=O`, the GI50 was 20 µM in data set [1]; > 20 µM in data set [2]; 2.29 µM in data set [4]; 5.27 µM in data set [5]; > 20 µM in data set [7]; > 20 µM in data set [8]. The GI50 at 72 h in data set [3] was > 20 µM; in data set [6], 3.19 µM.
As to `O=C1C=C(CCCCCCCCCCN2CCCN(C(=O)c3ccc(-c4ccccc4)cc3)CC2)C(=O)c2ccccc21`, the GI50 in data set [1], in data set [2], in data set [4], in data set [5], in data set [7] and in data set [8] was > 20 µM throughout. Further, the GI50 at 72 h in data set [3] and in data set [6] was > 20 µM in each case.
Turning to `COC1=C(C)C(=O)C(CCCCCCCCCCN2CCCN(C(=O)c3ccc(-c4ccccc4)cc3)CC2)=C(C)C1=O`, the GI50 in data set [1] is 9.68 µM; in data set [2], > 20 µM; in data set [4], 0.89 µM; in data set [5], 1.56 µM; in data set [7], 9.76 µM; in data set [8] it was 19.4 µM. Also, the values for the GI50 at 72 h in data set [3] and in data set [6] were > 20 µM and 3.15 µM, respectively.
As for `COC1=C(C)C(=O)C(CCCCCCCCCCN2CCN(CCCCCCCCCCC3=C(C)C(=O)C(OC)=C(C)C3=O)CC2)=C(C)C1=O`, the GI50 in data set [1] was 0.15 µM; in data set [2] it was > 20 µM; in data set [4] it was 0.18 µM; in data set [5] it was 0.14 µM; in data set [7], 8.4 µM; in data set [8], 0.19 µM. Besides, the GI50 at 72 h in data set [3] and in data set [6] was > 20 µM in each case.
Take `COC1=C(C)C(=O)C(CCCCCCCCCCN2CCCN(CCCCCCCCCCC3=C(C)C(=O)C(OC)=C(C)C3=O)CC2)=C(C)C1=O`: the GI50 is 0.02 µM in data set [1]; 6.86 µM in data set [2]; 0.04 µM in data set [4]; 0.04 µM in data set [5]; 1.78 µM in data set [7]. Moreover, the 50% growth inhibitory concentration (GI50) at 72 h in data set [3] and in data set [6] was > 20 µM in each case.
Regarding `CC1=C(C)C(=O)C(CCCCCCCCCCN2CCN(CCCCCCCCCCC3=C(C)C(=O)C(C)=C(C)C3=O)CC2)=C(C)C1=O`, the 50% growth inhibitory concentration (GI50) is 0.12 µM in data set [1]; 5.87 µM in data set [2]; 0.07 µM in data set [4]; > 20 µM in data set [5]; 1.52 µM in data set [7]. In addition, the GI50 at 72 h in data set [3] is > 20 µM; in data set [6] it was 3.85 µM.
In the case of `COC1=C(OC)C(=O)C(CCCCCCCCCCN2CCCN(CCCCCCCCCCC3=C(C)C(=O)C(OC)=C(OC)C3=O)CC2)=C(C)C1=O`, the GI50 is 8.43 µM in data set [1]; > 20 µM in data set [2]; 1.98 µM in data set [4]; 8.69 µM in data set [5]; 14 µM in data set [7]; 11.7 µM in data set [8]. The GI50 at 72 h in data set [3] was > 20 µM; in data set [6], 1.14 µM.
Regarding `CC1=C(CCCCCCCCCCN2CCN(CCCCCCCCCCC3=C(C)C(=O)c4ccccc4C3=O)CC2)C(=O)c2ccccc2C1=O`, the GI50 in data set [1] is 0.26 µM; in data set [2] it was 15.7 µM; in data set [4], 0.26 µM; in data set [5] it was > 20 µM; in data set [7], 4.15 µM; in data set [8], 0.39 µM. In addition, the GI50 at 72 h was > 20 µM in data set [3] and 3.52 µM in data set [6].
For `COC1=C(OC)C(=O)C(CCCCCCCCCCN2CCN(CCCCCCCCCCC3=C(C)C(=O)C(OC)=C(OC)C3=O)CC2)=C(C)C1=O`, the GI50 is 11.7 µM in data set [1]; > 20 µM in data set [2]; 1.95 µM in data set [4]; 9.77 µM in data set [5]; > 20 µM in data set [7]. Besides, the GI50 at 72 h in data set [3] was > 20 µM; in data set [6], 2.63 µM.
For the compound `COC1=C(OC)C(=O)C(CCCCCCCCCCN2CCCN(C(=O)c3ccc(-c4ccccc4)cc3)CC2)=C(C)C1=O`, the concentration for 50% growth inhibition (GI50) in data set [1] is 9.73 µM; in data set [2], > 20 µM; in data set [4] it was 1.36 µM; in data set [5], 5 µM; in data set [7], 8.01 µM; in data set [8], > 20 µM. Also, the GI50 at 72 h in data set [3] is > 20 µM; in data set [6], 10.3 µM.
Consider `CC1=C(CCCCCCCCCCN2CCCN(C(=O)c3ccc(-c4ccccc4)cc3)CC2)C(=O)c2ccccc2C1=O`, for which the GI50 in data set [1] is 13.2 µM; in data set [2] it was > 20 µM; in data set [4], 0.97 µM; in data set [5] it was 5.57 µM; in data set [7], 12.4 µM; in data set [8] it was > 20 µM. The GI50 at 72 h is > 20 µM in data set [3] and 2.85 µM in data set [6].
As to `CC1=C(C)C(=O)C(CCCCCCCCCCN2CCCN(C(=O)c3ccc(-c4ccccc4)cc3)CC2)=C(C)C1=O`, the GI50 was 7.47 µM in data set [1]; > 20 µM in data set [2]; 1.78 µM in data set [4]; 1.39 µM in data set [5]; 7.97 µM in data set [7]; 19.9 µM in data set [8]. The values for the GI50 at 72 h in data set [3] and in data set [6] were > 20 µM and 4 µM, respectively.
In the case of `COC1=C(C)C(=O)C(CCCCCCCCCCN(C)CCN(C)CCCCCCCCCCC2=C(C)C(=O)C(OC)=C(C)C2=O)=C(C)C1=O`, the GI50 in data set [1] was > 20 µM; in data set [2] it was > 20 µM; in data set [4], 1.48 µM; in data set [5], 9.76 µM; in data set [7] it was > 20 µM. The GI50 at 72 h in data set [3] and in data set [6] was > 20 µM in each case.
Take `CC1=C(CCCCCCCCCCN2CCCN(CCCCCCCCCCC3=C(C)C(=O)c4ccccc4C3=O)CC2)C(=O)c2ccccc2C1=O`: the GI50 is 0.13 µM in data set [1]; 2.68 µM in data set [2]; 0.09 µM in data set [4]; 0.12 µM in data set [5]; 1.14 µM in data set [7]; 0.15 µM in data set [8]. Also, the concentration for 50% growth inhibition (GI50) at 72 h turned out to be 4.95 µM in data set [3] and 2.7 µM in data set [6].
On to `COc1cccc2c1C(=O)c1c(O)c3c(c(O)c1C2=O)C[C@@](O)(C(=O)CO)C[C@@H]3O[C@H]1C[C@H](N)[C@H](O)[C@H](C)O1` [DOXORUBICIN], for which the GI50 in data set [1] was 0.15 µM; in data set [2], 0.33 µM; in data set [7] it was 0.18 µM; in data set [8], 0.55 µM.
For `CCCCCCCCCC[C@H](O)COCCOC[C@@H](O)CCCCCCCCCCCCC1=C[C@H](C)OC1=O`, the concentration for 50% growth inhibition (GI50) in data set [1] is 0.09 µM; in data set [2], 2.62 µM; in data set [4], 0.03 µM; in data set [5], 0.16 µM; in data set [7], 4.8 µM; in data set [8], 0.25 µM. In addition, the figures for the 50% growth inhibitory concentration (GI50) at 72 h in data set [3] and in data set [6] were 9.71 µM and 3.34 µM, respectively.
